Experiments:
A549 = assay: Cytotoxicity against human A549 cells by SRB method; type: cell-based; details: for IC50: Homo sapiens, A549; for Activity: human, a549
P388 = assay: Cytotoxicity against mouse P388 cells by MTT method; type: cell-based; details: for IC50: Mus musculus, P388; for Activity: mouse, p388

| Structure (SMILES) | IC50 (A549) [µM] | IC50 (P388) [µM] | Activity (A549) | Activity (P388) |
| --- | --- | --- | --- | --- |
| CCC(C)C(=O)O[C@@H]1C([C@@H](OC(C)=O)[C@@]2(O)C(=O)CC[C@]3(C)C2=CC(=O)O[C@H]3c2ccoc2)C(=O)[C@H](C)[C@@H](CC(=O)OC)C1(C)C (stereo partly specified) [GRANAXYLOCARPIN A] | > 10 | 9.3 | – | – |
| C/C=C(\C)C(=O)O[C@H](C1=CC(C)(C)[C@H](CC(=O)OC)[C@@H](C)C1=O)[C@@]1(O)C(=O)CC[C@]2(C)C1=CC(=O)O[C@H]2c1ccoc1 [GRANAXYLOCARPIN B] | > 10 | 4.9 | – | – |
| C/C=C(\C)C(=O)O[C@@H]1[C@@H]2[C@H]3O[C@@]34[C@H](CC[C@@]3(C)[C@H](c5ccoc5)OC(=O)C[C@@]43O)[C@]3(C)[C@@H](CC(=O)OC)[C@]1(C)CO[C@]23O [GRANAXYLOCARPIN C] | – | – | Not Active | Not Active |
| COC(=O)[C@H](O)[C@H]1[C@]2(C)C[C@]3(OC(C)=O)[C@H]([C@H]2OC(C)=O)[C@@H](OC(C)=O)[C@]2(O)[C@@H]4CC(=O)O[C@@H](c5ccoc5)[C@]4(C)[C@@H](OC(C)=O)C[C@@H]2[C@]13C [GRANAXYLOCARPIN D] | – | – | Not Active | Not Active |
| COC(=O)[C@H](OC(C)=O)[C@H]1[C@]2(C)C[C@]3(OC(C)=O)[C@H]([C@H]2OC(C)=O)[C@@H](OC(C)=O)[C@]2(O)[C@@H]4CC(=O)O[C@@H](c5ccoc5)[C@]4(C)CC[C@@H]2[C@]13C [GRANAXYLOCARPIN E] | – | – | Not Active | Not Active |
| COC(=O)C1=CC[C@@]23CC[C@@H]([C@@](C)(/C=C/C=C(\C)C(=O)O)OC2=O)[C@@]3(OC(C)=O)CC1 [PSEUDOLARIC ACID B] | – | 0.74 | – | – |
